What was measured:
[1] = xn = mol fraction of the nth substance listed; conditions: 101 kPa, Liquid, x1 = 1; for viscosity: Capillary tube (Ostwald / Ubbelohde) method; for mass density: Vibrating tube method
[2] = refractive index (Na D-line) (dimensionless); xn = mol fraction of the nth substance listed; conditions: 101 kPa, Liquid, Standard Abbe refractometry, x1 = 1
[3] = 101.33 kPa, Liquid; for viscosity: Capillary tube (Ostwald / Ubbelohde) method; for mass density: Vibrating tube method
[4] = refractive index (Na D-line) (dimensionless); conditions: 101.33 kPa, Liquid, Standard Abbe refractometry

CO [methanol] + CC(C)=O
Conditions | mass density, [1] [kg/m3] | refractive index, [2] | viscosity, [1] [mPa·s]
298.15 K | 787.21 | 1.3271 | 0.5467
303.15 K | 782.75 | 1.3245 | 0.5058
308.15 K | 777.56 | 1.323 | 0.4818
313.15 K | 772.97 | 1.3208 | 0.4484
318.15 K | 768.03 | 1.3184 | 0.4208

CC(C)=O [acetone]
Conditions | mass density, [3] [kg/m3] | refractive index, [4] | viscosity, [3] [mPa·s]
298.15 K | 784.41 | 1.3558 | 0.3034
303.15 K | 778.66 | 1.3534 | 0.2966
308.15 K | 773.08 | 1.3509 | 0.2831
313.15 K | 766.95 | 1.349 | 0.2689
318.15 K | 761.26 | 1.3449 | 0.2511

CC(C)=O [acetone] + ClC(Cl)Cl
Conditions | mass density, [1] [kg/m3] | refractive index, [2] | viscosity, [1] [mPa·s]
298.15 K | 784.41 | 1.3558 | 0.3034
303.15 K | 778.66 | 1.3534 | 0.2966
308.15 K | 773.08 | 1.3509 | 0.2831
313.15 K | 766.95 | 1.349 | 0.2689
318.15 K | 761.26 | 1.3449 | 0.2511

ClC(Cl)Cl [trichloromethane]
Conditions | mass density, [3] [kg/m3] | refractive index, [4] | viscosity, [3] [mPa·s]
298.15 K | 1478.75 | 1.4422 | 0.5916
303.15 K | 1469.16 | 1.4397 | 0.558
308.15 K | 1460.01 | 1.4356 | 0.5333
313.15 K | 1450.39 | 1.4338 | 0.5072
318.15 K | 1440.03 | 1.4297 | 0.4849

CO [methanol]
Conditions | mass density, [3] [kg/m3] | refractive index, [4] | viscosity, [3] [mPa·s]
298.15 K | 787.21 | 1.3271 | 0.5467
303.15 K | 782.75 | 1.3245 | 0.5058
308.15 K | 777.56 | 1.323 | 0.4818
313.15 K | 772.97 | 1.3208 | 0.4484
318.15 K | 768.03 | 1.3184 | 0.4208

CO [methanol] + ClC(Cl)Cl
Conditions | mass density, [1] [kg/m3] | refractive index, [2] | viscosity, [1] [mPa·s]
298.15 K | 787.21 | 1.3271 | 0.5467
303.15 K | 782.75 | 1.3245 | 0.5058
308.15 K | 777.56 | 1.323 | 0.4765
313.15 K | 772.97 | 1.3208 | 0.4426
318.15 K | 768.03 | 1.3184 | 0.4153

From the NIST ThermoML archive (doi:10.1016/j.fluid.2018.10.024)
